# Literature values as cited in publication PMC6544043 (ACS infectious diseases, 2019).
# Biological target: adenosine/guanosine preferring nucleoside ribohydrolase (AGNH) (Trichomonas vaginalis, UniProt A2EYV3)
# Conditions: read-out: inhibitor potency; cited from earlier work
smiles,measurement,value
OC[C@H]1O[C@@H](n2cnc3c(NC4CCCC4)nc(Cl)nc32)[C@H](O)[C@@H]1O [2-chloro-N(6)-cyclopenty-ladenosine],IC50,9 µM
